In patent US20250127778A1, “CANCER IMMUNOTHERAPY COMPOSITION CONTAINING INTERACTION INHIBITOR OF STING AND TRIM29 AS ACTIVE INGREDIENT” (SPARK BIOPHARMA, INC, priority 2021, published 2025):

How the values were obtained:
[1] = tested on: TRIM29-mediated Lys48 polymerized multi-ubiquitination of STING; experiment: ELISA detection of STING Lys48 polymerized multi-ubiquitination in HEK293T cells; format: cell-based, human; settings: with MG132, three hours, FIG. 8
Method: It was confirmed whether the oxopiperazine derivatives of Formulas 1 to 6 increased the intracellular amount by preventing the degradation of STING through TRIM29-mediated Lys48 polymerized multi-ubiquitination (K48 linkage-specific polyubiquitination).
Specifically, HEK293T cells were seeded in a transparent 6-well plate and cultured for one day. […] At this time, only the effect of the compound was quantitatively detected in a manner of using an analysis value of the sample that was not treated with MG132, a proteasome inhibitor that prevents the removal of ubiquitinated proteins, as a control group and subtracting the analysis value from an analysis value of the sample that was treated with MG132. […] The protein concentration of the supernatant was measured by using Bradford assay reagent. […] To confirm the quantitative concentration, a 5× SDS-PAGE loading buffer (Biosesang) was added at the ratio of the manufacturer to a portion of the sample, and then the resultant was treated at 95° C. for five minutes and analyzed by using the western blotting method described above. […]

[2] = target: T1, TRIM29 (Homo sapiens, UniProt Q14134); experiment: ITDRF in A431 cells, TRIM29; format: binding; settings: FIG. 12
T1 construct: endogenous in cells; host or cells: A431
T1 sequence (Q14134 1-588): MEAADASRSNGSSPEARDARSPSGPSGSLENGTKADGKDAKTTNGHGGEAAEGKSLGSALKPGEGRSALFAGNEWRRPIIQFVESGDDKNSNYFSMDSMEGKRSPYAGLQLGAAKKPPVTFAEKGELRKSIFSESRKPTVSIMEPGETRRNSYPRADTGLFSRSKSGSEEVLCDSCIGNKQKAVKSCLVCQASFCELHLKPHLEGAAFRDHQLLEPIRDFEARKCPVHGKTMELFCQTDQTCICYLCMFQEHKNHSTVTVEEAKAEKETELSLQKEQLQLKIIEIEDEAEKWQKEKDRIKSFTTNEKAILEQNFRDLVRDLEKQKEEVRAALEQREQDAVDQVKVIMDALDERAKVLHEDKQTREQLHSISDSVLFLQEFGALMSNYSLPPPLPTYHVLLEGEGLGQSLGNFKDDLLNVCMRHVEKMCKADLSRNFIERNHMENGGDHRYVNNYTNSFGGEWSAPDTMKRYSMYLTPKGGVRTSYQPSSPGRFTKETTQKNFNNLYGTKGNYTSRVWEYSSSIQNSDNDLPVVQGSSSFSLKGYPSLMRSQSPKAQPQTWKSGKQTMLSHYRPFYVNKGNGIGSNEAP
Source text: It was verified whether the oxopiperazine derivative of the present invention was bound to STING among STING and TRIM29 to inhibit interaction thereof, based on the compound of Formula 1, by the cellular thermal shift assay (CETSA) and the isothermal dose response fingerprint (ITDRF) which were major technologies for verifying the interaction between small molecule compounds and target proteins. (D. M. Molinaetal., Science 2013, 341, 84-87.)
To verify the target of the compound of Formula 1 using the CETSA technique, the human A431 cell lines and mouse Raw264.7 cell lines were seeded on a 100-mm or 150-mm culture dish and cultured for one day. […] Afterwards, centrifugation was performed at 20000 g for 20 minutes at 4° C., the supernatant was transferred to a new container, and each concentration was measured by using the Micro BCA™ protein assay kit (ThermoFisher) according to the protocol of the manufacturer. The concentration of each sample was equally adjusted by using the RIPA lysis buffer, the 5× SDS-PAGE loading buffer (Biosesang) was added according to the ratio of the manufacturer, and the resultant was treated at 95° C. for 5 minutes and analyzed by using the Western blotting method described above.

Compound: COc1ccc(CC2=CN(c3ccc(C(=O)NC[C@H]4CCCO4)cc3[N+](=O)[O-])[C@H](C(C)C)C(=O)N2Cc2ccc(O)cc2)cc1 [Formula 1, 4-((R)-4-(4-hydroxybenzyl)-2-isopropyl-5-(4-methoxybenzyl)-3-oxo-3,4-dihydropyrazin-1 (2H)-yl)-3-nitro-N-(((R)-tetrahydrofuran-2-yl)methyl)benzamide]
- TRIM29-mediated lysine 48 polymerized multi-ubiquitination of STING [1]: inhibited
- ITDRF effect on TRIM29 [2]: without affecting TRIM29
